According to patent US20140187593A1, “DIAGNOSTIC TEST AND TREATMENT FOR A NE[…]” (priority 2012, published 2014):

System: patients with VMAT2 mutation
Assay: Clinical response of the index case to vitamin B6 or folinic acid
Assay type: in vivo, human
Description: The index case was a person with global developmental delay and abnormal movements. They had first been brought to medical attention with hypotonia, loss of acquired head control, and paroxysmal stereotyped episodes of persistent eye deviation and crying lasting hours. Video-EEG monitoring had excluded seizures, and a symptom diagnosis of oculogyric crisis had been made. Development had been normal initially, but had slowed after presentation. […] […] […] They had axial hypotonia and appendicular hypertonia specifically involving extensor muscles of upper and lower extremities. Deep tendon reflexes were 2+/4 and plantars flexor. […] Gait was parkinsonian with typical shuffling, posture was stooped, and postural reflexes diminished. They walked with bilateral alternating dystonia of hands and feet with intermittent toe walking and foot inversion, and was unable to tandem walk.

SMILES	Clinical improvement of symptoms
Nc1nc(=O)c2c([nH]1)NCC(CNc1ccc(C(=O)N[C@@H](CCC(=O)O)C(=O)O)cc1)N2C=O (mixture of isomers) [folinic acid]	no improvement
Cc1ncc(CO)c(CO)c1O.Cl [vitamin B6]	no improvement
